13 compounds from BindingDB's records for doi:10.1016/j.bmcl.2004.02.008 (Astrazeneca, 2004) can be followed below.

Some results are limits rather than exact numbers.

The assay concerns the target Cyclin-dependent kinase 2/G1/S-specific cyclin-E1 (Homo sapiens, UniProt P24941). Briefly: CDK Assay. Conditions: pH 7; 22 °C. As to the method:
The kinase activity was assayed using an in vitro scintillation proximity assay (SPA) for measuring incorporation of [gamma-33P] ATP into GST-Rb.
As to `CCSc1ccc2ncc(-c3ccnc(Nc4ccc(S(=O)(=O)NCCOC)cc4)n3)n2c1` [4-({4-[6-(ethylsulfanyl)imidazo[1,2-a]pyridin-3-yl]pyrimidin-2-yl}amino)-N-(2-methoxyethyl)benzene-1-sulfonamide], the IC50 was under 3 nM.
Consider `COCCNS(=O)(=O)c1ccc(Nc2nccc(-c3cnc4ccc(Br)cn34)n2)cc1` [4-[(4-{6-bromoimidazo[1,2-a]pyridin-3-yl}pyrimidin-2-yl)amino]-N-(2-methoxyethyl)benzene-1-sulfonamide], for which the IC50 was under 3 nM.
As for `COCCNS(=O)(=O)c1ccc(Nc2nccc(-c3cnc4ccc(C#N)cn34)n2)cc1` [4-[(4-{6-cyanoimidazo[1,2-a]pyridin-3-yl}pyrimidin-2-yl)amino]-N-(2-methoxyethyl)benzene-1-sulfonamide], the figure is under 3 nM; as for `COCCN(C)S(=O)(=O)c1ccc(Nc2nccc(-c3cnc4cccnn34)n2)cc1` [4-[(4-{imidazo[1,2-a]pyridazin-3-yl}pyrimidin-2-yl)amino]-N-(2-methoxyethyl)-N-methylbenzene-1-sulfonamide], 600 nM.
With `COCCNS(=O)(=O)c1ccc(Nc2nccc(-c3cnc4cccnn34)n2)cc1` [4-[(4-{imidazo[1,2-a]pyridazin-3-yl}pyrimidin-2-yl)amino]-N-(2-methoxyethyl)benzene-1-sulfonamide] the figure was under 3 nM; with `CNS(=O)(=O)c1ccc(Nc2nccc(-c3cnc4cccnn34)n2)cc1` [4-[(4-{imidazo[1,2-a]pyridazin-3-yl}pyrimidin-2-yl)amino]-N-methylbenzene-1-sulfonamide], under 3 nM; with `NS(=O)(=O)c1ccc(Nc2nccc(-c3cnc4cccnn34)n2)cc1` [4-[(4-{imidazo[1,2-a]pyridazin-3-yl}pyrimidin-2-yl)amino]benzene-1-sulfonamide], under 3 nM.
For `COCCNS(=O)(=O)c1ccc(Nc2ncc(Sc3ccccc3)c(-c3cnc4ccccn34)n2)cc1` [4-[(4-{imidazo[1,2-a]pyridin-3-yl}-5-(phenylsulfanyl)pyrimidin-2-yl)amino]-N-(2-methoxyethyl)benzene-1-sulfonamide], the IC50 is over 10000 nM.
As for `c1ccc(Nc2nccc(-c3cnc4cccnn34)n2)cc1` [4-{imidazo[1,2-a]pyridazin-3-yl}-N-phenylpyrimidin-2-amine], the figure is 1000 nM; as for `COCCNS(=O)(=O)c1ccc(Nc2nccc(-c3c(C)nc4cccnn34)n2)cc1` [N-(2-methoxyethyl)-4-[(4-{2-methylimidazo[1,2-a]pyridazin-3-yl}pyrimidin-2-yl)amino]benzene-1-sulfonamide], 3 nM; as for `COCCNS(=O)(=O)c1ccc(Nc2nccc(-c3cnc4ccc(OC)nn34)n2)cc1` [N-(2-methoxyethyl)-4-[(4-{6-methoxyimidazo[1,2-a]pyridazin-3-yl}pyrimidin-2-yl)amino]benzene-1-sulfonamide], 600 nM.
As for `CN(C)CCNS(=O)(=O)c1ccc(Nc2nccc(-c3cnc4cccnn34)n2)cc1` [N-[2-(dimethylamino)ethyl]-4-[(4-{imidazo[1,2-a]pyridazin-3-yl}pyrimidin-2-yl)amino]benzene-1-sulfonamide], the figure is 8 nM.
With `CN(C)CCCNS(=O)(=O)c1ccc(Nc2nccc(-c3cnc4cccnn34)n2)cc1` [N-[3-(dimethylamino)propyl]-4-[(4-{imidazo[1,2-a]pyridazin-3-yl}pyrimidin-2-yl)amino]benzene-1-sulfonamide] the figure was under 3 nM.
